Results published in ChEMBL document CHEMBL1201862, “PubChem BioAssay data set” (2004).
Calls of active or inactive are those of the source.

Tests used:
[1] = NIH-3T3 fibroblast cytotoxicity, dose response, cytotoxicity control, cell-based, fluorescence, Alamar Blue, secondary assay (AID 2327); format: functional;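 also: NIH-3T3 mouse fibroblasts cultured with fluconazole at 8 µg/mL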
[2] = system: Streptococcus sp. 'group A'; experiment: growth inhibition of control SK(-) GAS strain, dose response, counter-screen for streptokinase expression inhibitor project, luminescence, kanamycin, BacTiterGlo, confirmation (AID 1900); format: functional, organism-based
Streptokinase A = target: T1, Streptokinase A (Streptococcus pyogenes serotype M1, UniProt P10520); experiment: S. pyogenes streptokinase expression inhibitors, potency, dose response, plasminogen activation absorbance, OD405 (AID 1914); format: functional, Streptococcus pyogenes M1 GAS;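 also: secreted streptokinase activity via plasminogen activation per viability signal from cell pellet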
T1 sequence (P10520 whole entry): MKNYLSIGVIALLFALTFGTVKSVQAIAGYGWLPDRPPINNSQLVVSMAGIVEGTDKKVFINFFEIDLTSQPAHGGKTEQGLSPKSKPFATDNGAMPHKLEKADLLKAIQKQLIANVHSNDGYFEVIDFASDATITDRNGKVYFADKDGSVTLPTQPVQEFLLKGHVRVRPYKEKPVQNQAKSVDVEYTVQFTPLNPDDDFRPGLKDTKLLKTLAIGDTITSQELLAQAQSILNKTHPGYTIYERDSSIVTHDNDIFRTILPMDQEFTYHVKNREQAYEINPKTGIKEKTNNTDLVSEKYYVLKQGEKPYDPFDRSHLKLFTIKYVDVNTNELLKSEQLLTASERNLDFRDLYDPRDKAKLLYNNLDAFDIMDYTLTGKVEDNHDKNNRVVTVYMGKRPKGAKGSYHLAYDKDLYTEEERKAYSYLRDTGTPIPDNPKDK

[3] = C. albicans growth with fluconazole, confirmation, fluorescence, retest (AID 2467); format: functional, cell-based
Streptococcus = experiment: Group A Streptococcus viability loss, dose response, counter-screen for streptokinase expression inhibitor project, luminescence, BacTiterGlo (AID 1915); format: functional, organism-based;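 also: potency for reduction of bacterial viability or growth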
CAAX prenyl protease 2 [4] = target: CAAX prenyl protease 2 (Saccharomyces cerevisiae S288c, UniProt Q03530); format: biochemical
CAAX prenyl protease 1 = CAAX prenyl protease 1 (Saccharomyces cerevisiae S288c, UniProt P47154); experiment: Ste24 protease inhibitors, dose response, biochemical, S. cerevisiae, plate reader, cherry-pick (AID 488815)
CAAX prenyl protease 2 [5] = target: CAAX prenyl protease 2 (Homo sapiens, UniProt Q9Y256); experiment: human Rce1 protease inhibitors, dose response, biochemical, yeast membranes, quenched-peptide fluorescence, cherry-pick (AID 588849)
[6] = target: T2, Short transient receptor potential channel 4 (Mus musculus, UniProt Q9QUQ5); experiment: SAR Analysis for the identification of selective inhibits of the transient receptor potential cation channel C4 (TRPC4): Automated Electrophysiology. [Related pubchem assays (depositor defined):AID2256]; format: functional
T2 sequence (Q9QUQ5 whole entry): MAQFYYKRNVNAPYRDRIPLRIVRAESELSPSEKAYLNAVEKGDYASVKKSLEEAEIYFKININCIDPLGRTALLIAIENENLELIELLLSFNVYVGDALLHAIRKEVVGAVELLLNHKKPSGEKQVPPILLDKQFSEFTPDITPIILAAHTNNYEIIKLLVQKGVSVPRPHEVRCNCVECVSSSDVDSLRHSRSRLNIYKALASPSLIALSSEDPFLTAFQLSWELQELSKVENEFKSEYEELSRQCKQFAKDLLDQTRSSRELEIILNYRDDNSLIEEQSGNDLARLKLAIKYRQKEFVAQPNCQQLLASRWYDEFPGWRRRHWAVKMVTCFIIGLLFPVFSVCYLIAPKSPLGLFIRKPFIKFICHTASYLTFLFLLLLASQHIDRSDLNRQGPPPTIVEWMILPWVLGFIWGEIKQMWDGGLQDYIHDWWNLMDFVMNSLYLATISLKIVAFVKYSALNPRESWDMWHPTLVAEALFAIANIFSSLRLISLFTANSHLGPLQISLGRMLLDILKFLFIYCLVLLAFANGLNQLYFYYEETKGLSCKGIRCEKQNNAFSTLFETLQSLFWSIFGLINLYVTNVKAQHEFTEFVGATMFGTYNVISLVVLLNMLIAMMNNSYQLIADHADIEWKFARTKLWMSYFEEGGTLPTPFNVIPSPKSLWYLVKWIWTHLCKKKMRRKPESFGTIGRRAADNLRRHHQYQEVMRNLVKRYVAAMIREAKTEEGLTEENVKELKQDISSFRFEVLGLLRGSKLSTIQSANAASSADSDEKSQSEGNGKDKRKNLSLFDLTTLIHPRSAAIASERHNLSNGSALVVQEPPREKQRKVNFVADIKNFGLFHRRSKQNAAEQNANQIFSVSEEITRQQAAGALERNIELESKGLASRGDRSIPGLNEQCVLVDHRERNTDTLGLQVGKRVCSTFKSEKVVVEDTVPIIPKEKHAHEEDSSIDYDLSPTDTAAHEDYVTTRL

[7] = target: T2, Short transient receptor potential channel 4; experiment: TRPC4 inhibition under acetylcholine activation, SAR follow-up, cell-based, acetylcholine stimulus, HEK293 TRPC4, Fluo-4 (AID 492996); format: functional
[8] = target: Short transient receptor potential channel 6 (Mus musculus, UniProt Q61143); experiment: TRPC6 inhibition potency of TRPC4 inhibitor analogs, dose response, selectivity assay for selective TRPC4 inhibitor project, HEK293 cells, membrane potential dye, IC50 (AID 492987); format: functional, cell-based
[9] = target: T2, Short transient receptor potential channel 4; experiment: TRPC4 inhibitor concentration-response, dose response, cell-based, HEK293 TRPC4/mu-opioid, DAMGO stimulus, Fluo-4 (AID 492994); format: functional
Jurkat = experiment: SAR Analysis of small molecule inhibitors of […] specific antigen receptor-induced NF-kB activation in a Jurkat cell line using a luminescence assay - Set 3. [Related pubchem assays (depositor defined):AID435022, AID435025, AID465]; format: functional, cell-based; conditions: Homo sapiens
HEK293 [10] = experiment: SAR Analysis of small molecule inhibitors of B-cell specific antigen receptor-induced NF-kB activation in a HEK-293T cell line using a luminescence assay - Set 2. [Related pubchem assays (depositor defined):AID435022, AID435025, AID489021]; format: functional, cell-based; conditions: Homo sapiens
HEK293 [11] = experiment: cytotoxicity in HEK293T NF-kB-Luc cells, SAR follow-up, cytotoxicity control for NF-kB activator project, cell-based, resazurin fluorescence (AID 493251); format: functional; conditions: Homo sapiens
[12] = target: Luciferin 4-monooxygenase (Photuris pensylvanica, UniProt Q27757); experiment: firefly luciferase enzyme inhibitors, dose response, counter-screen for HSF-1 reporter inhibitor project, biochemical, Cell Titer Glo, luminescence, cherry-picks (AID 588847)
Chain of Luciferin 4-monooxygenase (Q27757 whole entry): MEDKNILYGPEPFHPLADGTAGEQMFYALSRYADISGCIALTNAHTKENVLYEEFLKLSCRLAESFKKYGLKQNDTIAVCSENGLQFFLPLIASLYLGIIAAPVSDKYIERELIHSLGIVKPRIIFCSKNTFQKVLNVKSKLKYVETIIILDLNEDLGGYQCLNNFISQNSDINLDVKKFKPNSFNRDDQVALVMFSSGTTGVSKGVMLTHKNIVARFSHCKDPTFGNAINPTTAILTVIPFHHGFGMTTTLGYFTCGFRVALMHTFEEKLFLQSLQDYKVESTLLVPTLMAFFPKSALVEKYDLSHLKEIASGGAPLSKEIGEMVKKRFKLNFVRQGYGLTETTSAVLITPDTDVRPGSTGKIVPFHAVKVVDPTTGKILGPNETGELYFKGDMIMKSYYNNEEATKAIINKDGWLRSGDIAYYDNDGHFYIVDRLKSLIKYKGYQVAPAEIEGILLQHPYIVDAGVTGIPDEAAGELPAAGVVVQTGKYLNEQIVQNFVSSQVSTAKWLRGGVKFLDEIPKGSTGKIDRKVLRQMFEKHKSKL

Chain of CAAX prenyl protease 2 (Saccharomyces cerevisiae S288c, UniProt Q03530) (Q03530 whole entry): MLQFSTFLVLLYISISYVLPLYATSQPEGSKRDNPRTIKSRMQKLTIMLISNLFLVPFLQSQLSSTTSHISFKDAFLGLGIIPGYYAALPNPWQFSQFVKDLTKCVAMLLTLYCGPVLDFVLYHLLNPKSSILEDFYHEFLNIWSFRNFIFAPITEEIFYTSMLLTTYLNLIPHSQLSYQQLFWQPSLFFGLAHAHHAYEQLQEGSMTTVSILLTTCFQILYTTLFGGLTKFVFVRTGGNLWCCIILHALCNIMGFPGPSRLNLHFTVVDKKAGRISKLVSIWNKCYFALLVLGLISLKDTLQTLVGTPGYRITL
Chain of CAAX prenyl protease 1 (P47154 whole entry): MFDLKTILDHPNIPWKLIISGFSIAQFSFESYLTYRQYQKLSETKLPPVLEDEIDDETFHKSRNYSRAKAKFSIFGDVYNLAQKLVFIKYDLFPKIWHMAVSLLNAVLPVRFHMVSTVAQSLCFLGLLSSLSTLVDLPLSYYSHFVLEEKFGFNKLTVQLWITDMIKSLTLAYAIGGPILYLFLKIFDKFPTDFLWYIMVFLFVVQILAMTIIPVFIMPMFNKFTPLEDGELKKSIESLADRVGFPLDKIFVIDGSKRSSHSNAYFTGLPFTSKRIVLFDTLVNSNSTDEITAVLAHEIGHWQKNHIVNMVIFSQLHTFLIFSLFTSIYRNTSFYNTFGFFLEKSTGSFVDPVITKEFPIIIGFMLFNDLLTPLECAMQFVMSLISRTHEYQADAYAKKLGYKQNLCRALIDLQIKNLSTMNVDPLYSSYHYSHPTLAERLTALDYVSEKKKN
Chain of CAAX prenyl protease 2 (Homo sapiens, UniProt Q9Y256) (Q9Y256 whole entry): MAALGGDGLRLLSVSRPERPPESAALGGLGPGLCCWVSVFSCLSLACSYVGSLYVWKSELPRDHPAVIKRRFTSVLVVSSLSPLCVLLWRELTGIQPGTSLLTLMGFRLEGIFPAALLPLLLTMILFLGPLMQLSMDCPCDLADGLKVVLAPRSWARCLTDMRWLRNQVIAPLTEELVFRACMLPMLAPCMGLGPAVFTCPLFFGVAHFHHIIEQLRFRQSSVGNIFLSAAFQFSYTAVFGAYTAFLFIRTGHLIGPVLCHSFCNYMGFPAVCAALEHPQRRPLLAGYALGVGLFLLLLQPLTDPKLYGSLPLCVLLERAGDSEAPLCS
Chain of Short transient receptor potential channel 6 (Q61143 whole entry): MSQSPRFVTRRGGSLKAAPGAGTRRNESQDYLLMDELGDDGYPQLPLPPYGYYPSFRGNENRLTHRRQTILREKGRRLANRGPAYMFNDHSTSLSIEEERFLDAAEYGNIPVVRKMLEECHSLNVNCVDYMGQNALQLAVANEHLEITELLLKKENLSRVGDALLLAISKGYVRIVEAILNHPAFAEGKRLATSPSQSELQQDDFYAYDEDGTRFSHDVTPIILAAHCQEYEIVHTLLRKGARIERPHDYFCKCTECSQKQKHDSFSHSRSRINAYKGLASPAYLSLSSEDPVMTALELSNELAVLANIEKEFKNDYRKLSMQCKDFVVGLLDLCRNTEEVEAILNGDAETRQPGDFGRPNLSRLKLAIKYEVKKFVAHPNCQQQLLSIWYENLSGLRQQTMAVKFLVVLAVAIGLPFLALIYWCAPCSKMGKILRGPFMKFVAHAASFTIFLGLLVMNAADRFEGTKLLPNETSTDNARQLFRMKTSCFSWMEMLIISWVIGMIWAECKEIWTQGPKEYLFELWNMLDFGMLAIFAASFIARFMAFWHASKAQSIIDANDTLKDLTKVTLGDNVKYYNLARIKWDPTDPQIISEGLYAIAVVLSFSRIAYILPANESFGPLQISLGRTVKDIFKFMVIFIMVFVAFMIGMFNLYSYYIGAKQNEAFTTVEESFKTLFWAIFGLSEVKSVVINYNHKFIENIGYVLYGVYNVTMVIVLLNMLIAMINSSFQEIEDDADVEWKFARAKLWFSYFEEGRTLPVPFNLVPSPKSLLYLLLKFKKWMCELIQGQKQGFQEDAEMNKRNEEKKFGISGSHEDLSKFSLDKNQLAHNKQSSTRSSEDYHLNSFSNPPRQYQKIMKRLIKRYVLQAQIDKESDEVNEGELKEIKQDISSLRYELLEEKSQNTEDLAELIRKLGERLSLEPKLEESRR

For CCCCCc1ccc(OCCOCC[n+]2cn(C)c3ccccc32)c(CCCCC)c1, the EC50 [1] was > 150 µM (inactive), the EC50 [2] was 6.43 µM (active) and the EC50 (Streptokinase A) was 13.5 µM (active). For the same molecule, the EC50 [3] was 1.31 µM (active), the EC50 (Streptococcus) was 16.1 µM (inconclusive) and the AC50 (CAAX prenyl protease 2 [4]) was 9.1 µM (active). For the same molecule, the AC50 (CAAX prenyl protease 1) was 13.1 µM (active) and the AC50 (CAAX prenyl protease 2 [5]) was 17.9 µM (active).

For Cc1cc(N2CCN(c3ccncc3)CC2)nc2ccccc12, the IC50 [6] was 8.18 µM (active), the IC50 [7] was 15.2 µM (active) and the IC50 [8] was 11.4 µM (active). The IC50 [9] was 19.9 µM (active).

With CCOc1ccc(-c2nc(CSCC(=O)NCCN3CCCC3)c(C)o2)cc1 the IC50 (Jurkat) was 10.4 µM (active), the IC50 (HEK293 [10]) was 28.4 µM (inactive) and the IC50 (HEK293 [11]) was > 80 µM (inactive).

With C[C@]12C=CC(=O)C=C1CC[C@@H]1[C@@H]2[C@@H](O)C[C@@]2(C)[C@H]1CC[C@]2(O)C(=O)CO [PREDNISOLONE] the AC50 [12] was > 52 µM (inactive).
